One molecule from ChEMBL document CHEMBL1136460, “Novel oxazolidinone-quinolone hybrid antimicrobials” (Bioorg Med Chem Lett, 2003) can be followed below.

One assay concerns Haemophilus influenzae. The experiment in a line: Antibacterial activity against Haemophilus influenzae (HI1008). The assay is classed as functional.
The next assay deals with Moraxella catarrhalis. Description: Antibacterial activity against Moraxella catarrhalis (MC1002). The assay is classed as functional.

In brackets after ≈: the same amount, converted by molar mass.

`O=C(O)c1cn(C2CC2)c2cc(N3CCNCC3)c(F)cc2c1=O` [CIPROFLOXACIN]: the MIC against Haemophilus influenzae was not above 0.06 µg/mL; against Moraxella catarrhalis, 0.03 µg/mL (≈ 0.0905 µM).
